From US20220033434A1, “ANDROGEN RECEPTOR NUCLEIC ACIDS AND USES THEREOF” (Avidity Biosciences, Inc., priority 2016, published 2022)
In the oligonucleotide strings, read from the 5' end, every base follows the letter of its sugar. An asterisk marks phosphorothioate; unmarked linkages are phosphodiester. Other units and linkages are bracketed, terminal groups are in braces. A string of capitals states the bases alone. d = 2'-deoxy (DNA); m = 2'-O-methyl; f = 2'-fluoro

How the values were obtained:
Type in all cases: cell-based, human
AR mRNA [1] = assay: AR mRNA downregulation by RT-qPCR at 5 nM siRNA in LNCaP cells; settings: 24 hrs post-transfection
Method: (§1) Focusing on siRNAs targeting AR sequences exons 1 and 2, the ability of these siRNAs to downregulate AR mRNA at a concentration of 5 nM was determined by RT-qPCR. For this purpose, siRNAs were transfected into 22RV1 and LNCaP cells as described above. At 24 hrs post-transfection, RNA was harvested from cells using a Qiagen RNeasy® Plus Mini Kit or Stratec InviTrap® RNA Cell HTS96 kit. The concentration of each isolated RNA was determined via A260 measurement using a NanoDrop spectrophotometer. RNA samples were reverse transcribed to cDNA using the High Capacity RNA to cDNA Kit (Life Technologies) according to the manufacturer's instructions. cDNA samples were then quantified by qPCR using AR-specific probes and results normalized to either endogenous β-actin or PPIB using the standard 2^−ΔΔCt method. These studies identified 6 siRNAs that at a concentration of 5 nM down regulated AR mRNA in 22RV1 and LNCaP cells by more than 80% compared to controls (Table 4).

AR FL(1) = assay: AR protein knock-down by Western blot after siRNA transfection in 22RV1 cells: AR FL(1); settings: 5 nM siRNA, 50 h post transfection, compared to controls
Method: (§2) In some instances, a set of AR siRNAs were identified that were predicted to be specific in human and non-human primates (NHP) and cross-reactive with NHPs but not rodent AR mRNA. To identify AR siRNAs that regulate both full length AR and clinically relevant AR splice variants, the search for AR siRNAs was focused primarily, but not exclusively, on exons 1, 2 and 3 of the AR gene, which are common to most AR isoforms. The resulting set of 50 AR siRNAs (Tables 1-3) was assessed in two prostate cancer lines that express high levels of either clinically relevant AR splice variants (22RV1, ATCC) or a full length AR T877A LBD mutant (LNCaP, ATCC). The response of LNCaP tumors in xenograft models to AR antagonists is known to correlate well with clinical responses.
(§3) To monitor their ability to downregulate various AR isoforms, each siRNA was formulated at a single final concentration of 5 nM with a commercially-available transfection reagent (Lipofectamine RNAiMAX, Life Technologies) according to the manufacturer's “forward transfection” instructions. At 50 h (22RV1) and 72 h (LNCaP) post transfection, cells were harvested, and lysed in RIPA buffer (Pierce) supplemented with HALT protease inhibitors (Pierce) using standard procedures. The protein concentration was determined using a BCA protein concentration kit (Pierce). To monitor AR levels in these lysates, proteins (30 ug/lane) were separated by PAGE on BOLT 4-12% Bis-Tris PA gels (Life Technologies), transferred to nitrocellulose using an iBlot dry blot system (Thermo Fisher), and probed with specific antibodies against a region of the N-terminal domain of human AR that is common in known clinically relevant splice variants (N20, Santa Cruz Biotech). A second antibody against α-Tubulin was used as control (P16, Santa Cruz Biotech). Levels of these proteins in the respective cell lysates were quantified on an Odyssey imaging system (LICOR) using appropriate secondary antibodies linked to IRDyes (800CW, 680RD).

[2] = system: AR FL (full length AR T877A LBD mutant); assay: AR protein knock-down by Western blot after siRNA transfection in LNCaP cells: AR FL; settings: 5 nM siRNA, 72 h post transfection, compared to controls
Method: as §2, §3

AR mRNA [3] = assay: AR mRNA downregulation by RT-qPCR at 5 nM siRNA in 22RV1 cells; settings: 24 hrs post-transfection
Method: as §1

AR-SV(2) = assay: AR protein knock-down by Western blot after siRNA transfection in 22RV1 cells: AR-SV(2); settings: 5 nM siRNA, 50 h post transfection, compared to controls
Method: as §2, §3

AR-SV(3) = assay: AR protein knock-down by Western blot after siRNA transfection in 22RV1 cells: AR-SV(3); settings: 5 nM siRNA, 50 h post transfection, compared to controls
Method: as §2, §3

AR mRNA [4] = assay: AR mRNA IC50 and maximal KD, siRNA at various concentrations, C4-2 cells, qPCR probes exon junctions 1/2 or 4/5
Method: as §1
(§4) To determine the concentration required to reduce AR expression by 50% (IC50) and maximal KD activity, these siRNAs were transfected into LNCaP, C4-2, and 22RV1 cells at various concentrations starting at 100 nM. C4-2 (MD Anderson) is an LNCaP subline that has been selected for resistance against clinically used AR antagonists (Wu et al., “Derivation of androgen-independent human LNCaP prostatic cancer cell sublines: Role of bone stromal cells,” International J Cancer 1994; 57:406-412). Cells were harvested 48 h post-transfection; RNA was prepared and analyzed as stated above. For these experiments, specific AR qPCR probes located at the exon junctions 1/2 or 4/5 were used that recognize most mRNAs of relevant AR isoforms or primarily full length AR mRNA, respectively. All tested siRNAs lowered AR expression with subnanomolar potency to 70% in 22RV1 cells and to ≥90% in LNCaP and C4-2 cells (Table 5). […]

AR mRNA [5] = assay: AR mRNA IC50 and maximal KD, siRNA at various concentrations, LNCaP cells, qPCR probes exon junctions 1/2 or 4/5
Method: as §1, §4

AR mRNA [6] = assay: AR mRNA IC50 and maximal KD, siRNA at various concentrations, 22RV1 cells, qPCR probes exon junctions 1/2 or 4/5
Method: as §1, §4

[7] = AR qPCR probe at exon junction 1/2, 48 h post-transfection
[8] = AR qPCR probe at exon junction 4/5, 48 h post-transfection

Substance | % KD AR RNA LNCaP (AR mRNA [1]) | % KD AR Protein 22RV1 AR FL(1) (AR FL(1)) | % KD AR Protein LNCaP AR FL [2] | % KD AR RNA 22RV1 (AR mRNA [3]) | % KD AR Protein 22RV1 AR-SV(2) (AR-SV(2)) | % KD AR Protein 22RV1 AR-SV(3) (AR-SV(3)) | further results
XD-01813: AR siRNA with chemical modification, Id # 1201; sense X05321 (SEQ ID NO: 151), antisense X05322 (SEQ ID NO: 152) (sense mGmCfGmUfGmCfGmCfGmAfAmGfUmGfAmUfCmCfAdT*dT; antisense fUfGmGfAmUfCmAfCmUfUmCfGmCfGmCfAmCfGmCdT*dT) | 66% | 73% | 98% | 53% | 77% | 80% | –
XD-01817: AR siRNA with chemical modification, Id # 1987; sense X05329 (SEQ ID NO: 159), antisense X05330 (SEQ ID NO: 160) (sense mAmAfGmGfUmUfCmUfCmUfGmCfUmAfGmAfCmGfAdT*dT; antisense fUfCmGfUmCfUmAfGmCfAmGfAmGfAmAfCmCfUmUdT*dT) | 87% | 83% | 99% | 83% | 91% | 86% | max KD (%), C4-2, Exon 1/2 (AR mRNA [4]; [7]): 83.6%; IC50 (AR mRNA [4]; AR qPCR probe at exon junction 1/2, 48 h post-transfection, read-out: IC50 (nM), C4-2, Exon 1/2): 0.021 nM; max KD (%), C4-2, Exon 4/5 (AR mRNA [4]; [8]): 84.1%; IC50 (AR mRNA [4]; AR qPCR probe at exon junction 4/5, 48 h post-transfection, read-out: IC50 (nM), C4-2, Exon 4/5): 0.023 nM; max KD (%), LNCaP, Exon 1/2 (AR mRNA [5]; [7]): 83.4%; IC50 (AR mRNA [5]; AR qPCR probe at exon junction 1/2, 48 h post-transfection, read-out: IC50 (nM), LNCaP, Exon 1/2): 0.018 nM; max KD (%), LNCaP, Exon 4/5 (AR mRNA [5]; [8]): 87.2%; IC50 (AR mRNA [5]; AR qPCR probe at exon junction 4/5, 48 h post-transfection, read-out: IC50 (nM), LNCaP, Exon 4/5): 0.017 nM; max KD (%), 22RV1, Exon 1/2 (AR mRNA [6]; [7]): 49.3%; IC50 (AR mRNA [6]; AR qPCR probe at exon junction 1/2, 48 h post-transfection, read-out: IC50 (nM), 22RV1, Exon 1/2): 0.059 nM; max KD (%), 22RV1, Exon 4/5 (AR mRNA [6]; [8]): 61.1%; IC50 (AR mRNA [6]; AR qPCR probe at exon junction 4/5, 48 h post-transfection, read-out: IC50 (nM), 22RV1, Exon 4/5): 0.043 nM
XD-01816: AR siRNA with chemical modification, Id # 1984; sense X05327 (SEQ ID NO: 157), antisense X05328 (SEQ ID NO: 158) (sense mGmCfAmAfAmGfGmUfUmCfUmCfUmGfCmUfAmGfAdT*dT; antisense fUfCmUfAmGfCmAfGmAfGmAfAmCfCmUfUmUfGmCdT*dT) | 74% | 57% | 97% | 60% | 66% | 69% | –
XD-01820: AR siRNA with chemical modification, Id # 2189; sense X05335 (SEQ ID NO: 165), antisense X05336 (SEQ ID NO: 166) (sense mGmUfAmCfCmAfGmAfGmUfCmGfCmGfAmCfUmAfCdT*dT; antisense fGfUmAfGmUfCmGfCmGfAmCfUmCfUmGfGmUfAmCdT*dT) | 59% | 85% | 100% | 46% | 91% | 91% | –
XD-01821: AR siRNA with chemical modification, Id # 2207; sense X05337 (SEQ ID NO: 167), antisense X05338 (SEQ ID NO: 168) (sense mCmUfAmCfAmAfCmUfUmUfCmCfAmCfUmGfGmCfUdT*dT; antisense fAfGmCfCmAfGmUfGmGfAmAfAmGfUmUfGmUfAmGdT*dT) | 81% | 73% | 96% | 68% | 80% | 7% | –
XD-01834: AR siRNA with chemical modification, Id # 2923; sense X05363 (SEQ ID NO: 193), antisense X05364 (SEQ ID NO: 194) (sense mCmUfAmUfUmGfAmUfAmAfAmUfUmCfCmGfAmAfGdT*dT; antisense fCfUmUfCmGfGmAfAmUfUmUfAmUfCmAfAmUfAmGdT*dT) | – | 90% | 91% | – | 91% | 79% | –
XD-01835: AR siRNA with chemical modification, Id # 2924; sense X05365 (SEQ ID NO: 195), antisense X05366 (SEQ ID NO: 196) (sense mUmAfUmUfGmAfUmAfAmAfUmUfCmCfGmAfAmGfGdT*dT; antisense fCfCmUfUmCfGmGfAmAfUmUfUmAfUmCfAmAfUmAdT*dT) | – | 89% | 92% | – | 85% | 83% | –
XD-01819: AR siRNA with chemical modification, Id # 2185; sense X05333 (SEQ ID NO: 163), antisense X05334 (SEQ ID NO: 164) (sense mCmUfGmCfGmUfAmCfCmAfGmAfGmUfCmGfCmGfAdT*dT; antisense fUfCmGfCmGfAmCfUmCfUmGfGmUfAmCfGmCfAmGdT*dT) | – | 15% | 92% | – | 47% | 45% | –
XD-01842: AR siRNA with chemical modification, Id # 2940; sense X05379 (SEQ ID NO: 209), antisense X05380 (SEQ ID NO: 210) (sense mAmGfGmAfAmAfAmAfUmUfGmUfCmCfAmUfCmUfUdT*dT; antisense fAfAmGfAmUfGmGfAmCfAmAfUmUfUmUfUmCfCmUdT*dT) | – | 89% | 101% | – | 94% | 84% | –
XD-01818: AR siRNA with chemical modification, Id # 2045; sense X05331 (SEQ ID NO: 161), antisense X05332 (SEQ ID NO: 162) (sense mCmCfCmUfUmUfCmAfAmGfGmGfAmGfGmUfUmAfCdT*dT; antisense fGfUmAfAmCfCmUfCmCfCmUfUmGfAmAfAmGfGmGdT*dT) | – | −6% | 93% | – | −48% | 25% | –
XD-01861: AR siRNA with chemical modification, Id # 3779; sense X05417 (SEQ ID NO: 247), antisense X05418 (SEQ ID NO: 248) (sense mGmAfGmCfGmUfGmGfAmCfUmUfUmCfCmGfGmAfAdT*dT; antisense fUfUmCfCmGfGmAfAmAfGmUfCmCfAmCfGmCfUmCdT*dT) | – | 90% | 99% | – | 11% | 51% | –
